Data set [1] deals with adult subjects with relapsing MS. In words: Brain MRI lesions (CUAL, Gd+ T1, new/enlarging T2) from baseline to Week 108. The class given is in vivo, human. As to conditions: for CUAL mean estimate (Lesions per year): baseline to Week 108, negative binomial regression, Full Analysis Set. Here is the method: CUAL are new Gd+T1 lesions plus new or enlarging T2 lesions (without double-counting of lesions).
MRI scans were performed at Visits 2 (Baseline), 10 (Week 60), and 14 (EOT) and at any unscheduled visit (U1, U2, etc.). If applicable, MRI scans also were performed at the corresponding visits in the PTOP (Visits 10A and 14A). Testing at all visits were performed up to 7 days prior to or after the visit date.
MRI variables included the number and volume of new and total Gd+ lesions on T1-weighted MRI scans, number of new and enlarging lesions and lesion volume on T2-weighted MRI, and global measures of loss of brain tissue.
T1-weighted imaging before and after i.v. administration of 0.1 mmol/kg body weight (=0.2 mL/kg) of Gd as well as PD-T2-weighted imaging was performed. Gd may cause nausea and vomiting and in very rare cases allergic reactions that could require immediate anti-anaphylactic therapy (such as steroids, epinephrine/adrenaline, etc.).
Patients (18-55 years) with RMS (expanded disability status scale scores: 0-5.5) were randomized (1:1) to receive ponesimod (PON) 20 mg or teriflunomide (TER) 14 mg for 108 weeks. MRI assessments were: volume of T2 lesions; mean number of new gadolinium-enhancing (Gd+) T1 lesions and new/enlarging T2 lesions; and absence of active MRI lesions at week 108. NEDA-3 status (absence of confirmed relapse, Gd+T1 lesions and new/enlarging T2 lesions on annual MRIs, and 12-week confirmed disability accumulation) was evaluated from baseline to week 108.

The subject of data set [2] is peripheral blood lymphocyte count. In words: Peripheral blood lymphocyte count in healthy volunteers. The class given is in vivo, human. Here is the method: In healthy volunteers, PONVORY induces a dose-dependent reduction of the peripheral blood lymphocyte count from a single dose of 5 mg onwards, with the greatest reduction observed 6 hours post-dose, caused by reversible sequestration of lymphocytes in lymphoid tissues. After 7 daily doses of 20 mg, the greatest decrease in absolute mean lymphocyte count was to 26% of baseline (650 cells/μL), observed 6 hours after administration. Peripheral blood B cells [CD19+] and T cells [CD3+], T-helper [CD3+CD4+], and T-cytotoxic [CD3+CD8+] cell subsets are all affected, while NK cells are not. T-helper cells were more sensitive to the effects of ponesimod than T-cytotoxic cells.

Data set [3] can be described thus: in vitro. The format is in vitro ADME. As to conditions: human, plasma. The source says:
(§1) Ponesimod is highly bound to plasma proteins (>99%) and is mainly (78.5%) distributed in the plasma fraction of whole blood.

The test system of data set [4] is plasma proteins. In words: in vitro. The class given is in vitro ADME.
From the text: as §1

Data set [5] deals with CYP or UGT enzymes, or transporters. Nature of the data set: In vitro investigations of drug-drug interaction potential. As to conditions: at recommended dose of 20 mg once-daily. The format is in vitro ADME.
Data set [6] has as its system pregnant rabbits. Nature of the data set: Dose-range finding study in pregnant rabbits, oral. The format is in vivo, rabbit. As to conditions: 0, 6, 20, or 60 mg/kg/day; at lowest dose tested. An excerpt:
No maternal toxicity was observed.

Data set [7] is described as follows: Ames assay. The format is cell-based. As to conditions: in vitro. The source says: Ponesimod was negative in a battery of in vitro (Ames, chromosomal aberration in mammalian cells) and in vivo (micronucleus in rat) assays.
A general note: The Ames test detects mutagens through reverse mutation in bacteria.

The test system of data set [8] is CYP450, UGT and non-CYP450 oxidative enzymes. Nature of the data set: In vitro studies with human liver preparations (metabolism). The format is in vitro ADME. An excerpt: Experiments with human liver preparations indicate that metabolism of ponesimod to M13 occurs primarily through a combination of non-Cytochrome P450 (CYP450) enzymatic activities. Multiple CYP450 (CYP2J2, CYP3A4, CYP3A5, CYP4F3A, and CYP4F12) and non-CYP450 enzymes catalyze the oxidation of ponesimod to M12. Ponesimod also undergoes direct glucuronidation (mainly UGT1A1 and UGT2B7).

These results are taken from patent US12419869B2, “Methods of treating multiple sclerosis” (Vanda Pharmaceuticals Inc., priority 2021, dated 2025).

Molecules are shown by their SMILES. Values joined by “and” are separate entries in the source; they are usually repeats but may differ in a detail not shown here. Identical values can stand only once.

For `CCC/N=C1\S/C(=C\c2ccc(OC[C@H](O)CO)c(Cl)c2)C(=O)N1c1ccccc1C` [Ponesimod, (R)-5-[3-chloro-4-(2,3-dihydroxy-propoxy)-benz[Z]ylidene]-2-([Z]-propylimino)-3-o-tolyl-thiazolidin-4-one], the “CUAL mean estimate (Lesions per year)” value in data set [1] is 1.405 lesions per year. The “CUAL mean estimate (Lesions per year)” value in data set [1] (listed as ponesimod) is 1.405 lesions per year. In addition, in data set [1] (baseline to week 108), the “CUAL treatment effect (Rate Ratio) ponesimod vs teriflunomide” value is 0.444 and 0.44; the “LS mean difference (PON-TER) in change from baseline in total volume of T2 lesions” value was −399.2 mm^3; the “Mean number of new Gd+ T1 lesions per scan / per MRI” value came out at 0.18; the “Mean number of new/enlarging T2 lesions per year” value amounted to 1.40. In addition, in data set [1] (baseline to week 108), the “Rate ratio, new Gd+ T1 lesions per scan, PON vs TER” value amounted to 0.42; the “Rate ratio, new/enlarging T2 lesions per year, PON vs TER” value came to 0.44; the “Raw mean lesions/year (CUAL)” value is 1.559 lesions/year; the “Reduction of number of CUALs compared to teriflunomide 14 mg” value came to 56%. In data set [1] (baseline to week 108), the “Total number of lesions (CUAL)” value is 1671. For the same molecule, in data set [1] (vs teriflunomide 14 mg), the “Relative reduction, T1 Gd-enhancing lesions per MRI” value is reported as 58.5% (p < 0001) and the “Relative reduction, new or enlarging T2 hyperintense lesions per year” value is 55.7% (p < 0001). Besides, in data set [1] (week 108), the “Odds ratio PON vs TER for absence of new Gd+ T1 lesions” value amounted to 2.18 and the “Odds ratio PON vs TER for absence of new/enlarging T2 lesions” value was 1.71. For the same molecule, in data set [2] (after 7 daily doses of 20 mg), the “Absolute mean lymphocyte count at greatest decrease” value was 650 cells/μL. In addition, in data set [2] (after 7 daily doses of 20 mg, 6 hours after administration), the “Greatest decrease in absolute mean lymphocyte count, % of baseline” value is on record as 26 % of baseline. Moreover, the “Time of greatest reduction of peripheral blood lymphocyte count” value in data set [2] (post-dose, healthy volunteers) stood at 6 h. The unbound share (fraction unbound) – broadly, the share of the substance not bound to proteins or other matrix – in data set [3] was < 0.01. The “Distribution in the plasma fraction of whole blood” value in data set [4] turned out to be 78.5%. In addition, the Plasma protein binding entry in data set [4] (human, plasma) was “greater than 99%”. Further, the “Drug-drug interaction potential for CYP or UGT enzymes, or transporters” value in data set [5] is “do not show any clinically relevant drug-drug interaction potential”. Further, in data set [6], the “Findings in dose-range finding study in pregnant rabbits” value is “an increase in embryofetal death and fetal limb malformation”. Moreover, in data set [7], the Ames assay result is listed as “negative”. Moreover, the “Contribution of enzymes to metabolism” value in data set [8] is on record as “without major contribution by any single enzyme”.

Regarding `C/C(O)=C(\C#N)C(=O)Nc1ccc(C(F)(F)F)cc1` [Teriflunomide, reference compound], the “CUAL mean estimate (Lesions per year)” value in data set [1] is given as 3.164 lesions per year. In addition, in data set [1] (baseline to week 108), the “Mean number of new Gd+ T1 lesions per scan / per MRI” value is on record as 0.43.
